Assay results reported in ChEMBL document CHEMBL1201862, “PubChem BioAssay data set” (2004).
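The compound was tested at five concentrations on cells cultured in 96-well plates, with a 48-hour exposure period. GI50 marks 50% less growth.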 The source made the active and inactive calls. No stated cut-off is given here; in the data, active = GI50 up to about 1.1 µM and inactive = higher.

Key:
Assay in all cases: DTP human tumour cell line panel, 48 h
[1] = test system: 786-0
[2] = test system: A498
[3] = test system: A549
[4] = test system: ACHN
[5] = test system: BT-549
[6] = test system: CAKI-1
[7] = test system: CCRF-CEM
[8] = test system: COLO 205
[9] = test system: DU-145
[10] = test system: EKVX
[11] = test system: HCC 2998
[12] = test system: HCT-116
[13] = test system: HCT-15
[14] = test system: HL-60
[15] = test system: HOP-62
[16] = test system: HOP-92
[17] = test system: HT-29
[18] = test system: Hs-578T
[19] = test system: K562
[20] = test system: KM12
[21] = test system: LOX IMVI
[22] = test system: M14
[23] = test system: MCF7
[24] = test system: MDA-MB-231
[25] = test system: MDA-MB-435
[26] = test system: MDA-N
[27] = test system: MOLT-4
[28] = test system: Malme-3M
[29] = test system: NCI-H226
[30] = test system: NCI-H23
[31] = test system: NCI-H460
[32] = test system: NCI-H522
[33] = test system: NCI/ADR-RES
[34] = test system: OVCAR-3
[35] = test system: OVCAR-4
[36] = test system: OVCAR-5
[37] = test system: OVCAR-8
[38] = test system: PC-3
[39] = test system: RXF 393
[40] = test system: SF-268
[41] = test system: SF-295
[42] = test system: SF-539
[43] = test system: SK-MEL-28
[44] = test system: SK-MEL-2
[45] = test system: SK-MEL-5
[46] = test system: SK-OV-3
[47] = test system: SN12C
[48] = test system: SNB-19
[49] = test system: SNB-75
[50] = test system: SR
[51] = test system: SW-620
[52] = test system: T47D
[53] = test system: TK-10
[54] = test system: U-251
[55] = test system: UACC-257
[56] = test system: UACC-62
[57] = test system: UO-31
[58] = test system: IGROV-1
[59] = test system: RPMI-8226

COc1ccc(C(SCCO)(c2ccc(OC)cc2)c2ccc(OC)cc2)cc1
GI50 [1]: 14.2 µM (inactive)
GI50 [2]: 17.8 µM (inactive)
GI50 [3]: 17.7 µM (inactive)
GI50 [4]: 17.7 µM (inactive)
GI50 [5]: 16.1 µM (inactive)
GI50 [6]: 20.6 µM (inactive)
GI50 [7]: 7.23 µM (inactive)
GI50 [8]: 11.2 µM (inactive)
GI50 [9]: 23.4 µM (inactive)
GI50 [10]: 10.7 µM (inactive)
GI50 [11]: 14.4 µM (inactive)
GI50 [12]: 14.3 µM (inactive)
GI50 [13]: 11.4 µM
GI50 [14]: 21 µM (inactive)
GI50 [15]: 16.4 µM (inactive)
GI50 [16]: 10.1 µM (inactive)
GI50 [17]: 17 µM (inactive)
GI50 [18]: 17.2 µM (inactive)
GI50 [19]: 3.19 µM (inactive)
GI50 [20]: 15.3 µM (inactive)
GI50 [21]: 14 µM (inactive)
GI50 [22]: 15.9 µM (inactive)
GI50 [23]: 14.8 µM (inactive)
GI50 [24]: 19.8 µM (inactive)
GI50 [25]: 5.79 µM (inactive)
GI50 [26]: 4.9 µM (inactive)
GI50 [27]: 10.9 µM (inactive)
GI50 [28]: 17.6 µM (inactive)
GI50 [29]: 13.9 µM (inactive)
GI50 [30]: 17.7 µM (inactive)
GI50 [31]: 15 µM (inactive)
GI50 [32]: 12.4 µM (inactive)
GI50 [33]: 13.6 µM (inactive)
GI50 [34]: 10.5 µM (inactive)
GI50 [35]: 21.6 µM (inactive)
GI50 [36]: 22.5 µM (inactive)
GI50 [37]: 14.9 µM (inactive)
GI50 [38]: 13.8 µM (inactive)
GI50 [39]: 12 µM (inactive)
GI50 [40]: 17.3 µM (inactive)
GI50 [41]: 12.4 µM (inactive)
GI50 [42]: 14.4 µM (inactive)
GI50 [43]: 17.9 µM (inactive)
GI50 [44]: 14.1 µM (inactive)
GI50 [45]: 12.2 µM (inactive)
GI50 [46]: 29.1 µM (inactive)
GI50 [47]: 17.5 µM (inactive)
GI50 [48]: 26.9 µM (inactive)
GI50 [49]: 22 µM (inactive)
GI50 [50]: 3.4 µM (inactive)
GI50 [51]: 15 µM (inactive)
GI50 [52]: 6.03 µM (inactive)
GI50 [53]: 21.8 µM (inactive)
GI50 [54]: 10.6 µM (inactive)
GI50 [55]: 13.5 µM (inactive)
GI50 [56]: 14 µM (inactive)
GI50 [57]: 13 µM (inactive)

N#C/C(=C\c1ccccc1)C(=O)Nc1nnc(-c2ccccc2)o1
GI50 [1]: 53 µM (inactive)
GI50 [2]: 27.3 µM (inactive)
GI50 [3]: 34.1 µM (inactive)
GI50 [4]: 35.6 µM (inactive)
GI50 [5]: 28.2 µM (inactive)
GI50 [6]: 28.1 µM (inactive)
GI50 [7]: 17.9 µM (inactive)
GI50 [8]: 28.3 µM (inactive)
GI50 [9]: 50.4 µM (inactive)
GI50 [10]: 47.3 µM (inactive)
GI50 [11]: 63.1 µM (inactive)
GI50 [12]: 33.3 µM (inactive)
GI50 [13]: 26.9 µM
GI50 [14]: 20.7 µM (inactive)
GI50 [15]: 37.6 µM (inactive)
GI50 [16]: 47.9 µM (inactive)
GI50 [17]: 41.3 µM (inactive)
GI50 [18]: > 100 µM (inactive)
GI50 [58]: 27.6 µM (inactive)
GI50 [19]: 26.4 µM (inactive)
GI50 [20]: 41.8 µM (inactive)
GI50 [21]: 37.5 µM (inactive)
GI50 [22]: 37.8 µM (inactive)
GI50 [23]: 50.9 µM (inactive)
GI50 [24]: 31.5 µM (inactive)
GI50 [25]: 37.8 µM (inactive)
GI50 [26]: 35.4 µM (inactive)
GI50 [27]: 33.1 µM (inactive)
GI50 [28]: 31 µM (inactive)
GI50 [29]: 44.9 µM (inactive)
GI50 [30]: 39 µM (inactive)
GI50 [32]: 38 µM (inactive)
GI50 [33]: 29.6 µM (inactive)
GI50 [34]: 14.8 µM (inactive)
GI50 [35]: 32.4 µM (inactive)
GI50 [36]: 82.6 µM (inactive)
GI50 [37]: 36.1 µM (inactive)
GI50 [38]: 42.1 µM (inactive)
GI50 [59]: 19.2 µM (inactive)
GI50 [39]: 34 µM (inactive)
GI50 [40]: 47.2 µM (inactive)
GI50 [41]: 13.2 µM (inactive)
GI50 [43]: 39.9 µM (inactive)
GI50 [44]: 52.1 µM (inactive)
GI50 [45]: 19 µM (inactive)
GI50 [46]: 31.8 µM (inactive)
GI50 [47]: 36.7 µM (inactive)
GI50 [49]: 48.8 µM (inactive)
GI50 [50]: 25.6 µM (inactive)
GI50 [51]: 52.7 µM (inactive)
GI50 [52]: 31.3 µM (inactive)
GI50 [53]: > 100 µM (inactive)
GI50 [54]: 37.4 µM (inactive)
GI50 [55]: 25.7 µM (inactive)
GI50 [56]: 22.3 µM (inactive)
GI50 [57]: 29.4 µM (inactive)

CC(=O)Nc1ccc2c3c(cc(O)c2c1)N(C(=O)CCCCCC(=O)N1CC(CCl)c2c1cc(O)c1cc(NC(C)=O)ccc21)CC3CCl (stereo not drawn)
GI50 [1]: < 0.01 µM (active)
GI50 [2]: 0.0109 µM (active)
GI50 [3]: 0.0176 µM (active)
GI50 [4]: < 0.01 µM (active)
GI50 [5]: 0.0134 µM (active)
GI50 [6]: 0.0123 µM (active)
GI50 [8]: 0.016 µM (active)
GI50 [9]: < 0.01 µM (active)
GI50 [10]: 0.193 µM (active)
GI50 [11]: 0.0211 µM (active)
GI50 [12]: 0.0101 µM (active)
GI50 [13]: 0.377 µM
GI50 [14]: 0.115 µM (active)
GI50 [15]: 0.019 µM (active)
GI50 [16]: < 0.01 µM (active)
GI50 [17]: 0.0321 µM (active)
GI50 [18]: 0.0362 µM (active)
GI50 [58]: 0.0292 µM (active)
GI50 [19]: 0.0625 µM (active)
GI50 [20]: 0.0416 µM (active)
GI50 [21]: < 0.01 µM (active)
GI50 [22]: < 0.01 µM (active)
GI50 [23]: < 0.01 µM (active)
GI50 [24]: 0.0301 µM (active)
GI50 [25]: 0.0191 µM (active)
GI50 [26]: 0.0164 µM (active)
GI50 [27]: < 0.01 µM (active)
GI50 [28]: 0.0125 µM (active)
GI50 [29]: < 0.0149 µM (active)
GI50 [30]: < 0.01 µM (active)
GI50 [31]: < 0.01 µM (active)
GI50 [32]: < 0.01 µM (active)
GI50 [33]: 1.38 µM (inactive)
GI50 [34]: 0.0172 µM (active)
GI50 [35]: 0.181 µM (active)
GI50 [36]: 0.101 µM (active)
GI50 [37]: < 0.0104 µM (active)
GI50 [38]: 0.045 µM (active)
GI50 [59]: 0.0296 µM (active)
GI50 [39]: 0.0152 µM (active)
GI50 [40]: < 0.01 µM (active)
GI50 [41]: 0.0156 µM (active)
GI50 [42]: 0.012 µM (active)
GI50 [43]: 0.0547 µM (active)
GI50 [44]: 0.0147 µM (active)
GI50 [45]: 0.0109 µM (active)
GI50 [46]: 0.0405 µM (active)
GI50 [47]: < 0.012 µM (active)
GI50 [48]: < 0.01 µM (active)
GI50 [49]: < 0.01 µM (active)
GI50 [50]: < 0.01 µM (active)
GI50 [51]: 0.13 µM (active)
GI50 [52]: < 0.01 µM (active)
GI50 [53]: 0.169 µM (active)
GI50 [54]: < 0.01 µM (active)
GI50 [55]: 0.0168 µM (active)
GI50 [56]: < 0.01 µM (active)
GI50 [57]: 0.105 µM (active)

CCSc1nc(C)nc2c1sc1nc3ccccc3n12
GI50 [1]: > 100 µM (inactive)
GI50 [2]: > 100 µM (inactive)
GI50 [3]: > 100 µM (inactive)
GI50 [4]: > 100 µM (inactive)
GI50 [5]: > 100 µM (inactive)
GI50 [6]: > 100 µM (inactive)
GI50 [7]: > 100 µM (inactive)
GI50 [8]: > 100 µM (inactive)
GI50 [9]: > 100 µM (inactive)
GI50 [10]: > 100 µM (inactive)
GI50 [11]: > 100 µM (inactive)
GI50 [12]: > 100 µM (inactive)
GI50 [13]: > 100 µM
GI50 [14]: > 28.1 µM (inactive)
GI50 [16]: > 100 µM (inactive)
GI50 [17]: > 100 µM (inactive)
GI50 [18]: 24.2 µM (inactive)
GI50 [58]: > 100 µM (inactive)
GI50 [19]: > 100 µM (inactive)
GI50 [20]: > 68.1 µM (inactive)
GI50 [21]: > 100 µM (inactive)
GI50 [22]: > 100 µM (inactive)
GI50 [23]: > 100 µM (inactive)
GI50 [24]: > 100 µM (inactive)
GI50 [25]: > 100 µM (inactive)
GI50 [26]: > 100 µM (inactive)
GI50 [27]: > 100 µM (inactive)
GI50 [29]: > 100 µM (inactive)
GI50 [30]: > 100 µM (inactive)
GI50 [31]: > 100 µM (inactive)
GI50 [32]: > 100 µM (inactive)
GI50 [33]: > 100 µM (inactive)
GI50 [34]: > 100 µM (inactive)
GI50 [35]: > 78.3 µM (inactive)
GI50 [36]: > 100 µM (inactive)
GI50 [37]: > 100 µM (inactive)
GI50 [38]: > 100 µM (inactive)
GI50 [59]: > 100 µM (inactive)
GI50 [39]: > 100 µM (inactive)
GI50 [40]: > 100 µM (inactive)
GI50 [41]: > 100 µM (inactive)
GI50 [42]: > 100 µM (inactive)
GI50 [43]: > 100 µM (inactive)
GI50 [44]: > 100 µM (inactive)
GI50 [45]: > 100 µM (inactive)
GI50 [46]: > 100 µM (inactive)
GI50 [47]: > 100 µM (inactive)
GI50 [48]: > 100 µM (inactive)
GI50 [49]: > 94 µM (inactive)
GI50 [50]: > 100 µM (inactive)
GI50 [51]: > 100 µM (inactive)
GI50 [52]: > 100 µM (inactive)
GI50 [53]: > 100 µM (inactive)
GI50 [54]: > 100 µM (inactive)
GI50 [55]: > 100 µM (inactive)
GI50 [56]: > 100 µM (inactive)
GI50 [57]: > 100 µM (inactive)
